Numbered stars: 1 amine (or outer) side, 2 acyl side, 3 side chain; on linkers, the order of the positions; unused ones are H or OH. Bridge positions count the residues as written; N and C are the ends. Square brackets hold non-standard residues; d marks the D form. Peptide text beside a SMILES is read from it. * marks the point of attachment. X7 = O=C(O)CN1CCN(CC(=O)O)CCN(CC(=O)NC2CCN(CC(=O)*)CC2)CCN(CC(=O)O)CC1; DOTA = O=C(O)CN1CCN(CC(=O)O)CCN(CC(=O)*)CCN(CC(=O)O)CC1; Trp(5-Br) = N[C@@H](Cc1c[nH]c2ccc(Br)cc12)C(=O)O; X13 = C/N=C(/NC)N(C)CCC[C@H](N[*:1])C(=O)[*:2]; Phe(3-Cl) = N[C@@H](Cc1cccc(Cl)c1)C(=O)O; Phe(4-Cl) = N[C@@H](Cc1ccc(Cl)cc1)C(=O)O; Arg(Me) = CNC(=N)NCCC[C@H](N)C(=O)O; X1 = O=C(CC1CCN([*:1])CC1)[*:2]; Cit = NC(=O)NCCC[C@H](N)C(=O)O; Lys(Me) = CNCCCC[C@H](N)C(=O)O; dTle = CC(C)(C)[C@@H](N)C(=O)O; αMeD = C[C@](N)(CC(=O)O)C(=O)O; Tle = CC(C)(C)[C@H](N)C(=O)O; Isovaleryl = CC(C)CC(=O)*; Aib = CC(C)(N)C(=O)O; βAla = NCCC(=O)O

Assay [1] addresses T1, Fc-fusion protein of human PSMA (hPSMA-Fc) (Homo sapiens, UniProt Q04609).
T1 construct: purchased Acro Biosystems PSA-H5264
As to the kind of experiment: Surface plasmon resonance assay (Biacore T200, single cycle kinetic). As to conditions: PSMA SPR assay, hPSMA-Fc, 25° C.; pKD category; read-out: pKD CAT (converted). Type of assay: binding. In outline:
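KD, expressed as pKD, came from 1:1 Langmuir fits of reference- and buffer-blank-subtracted SPR data. The runs were single-cycle kinetics at 25° C in HBST/0.1% DMSO over human PSMA-Fc, captured to ~1000 RU on a peptide-coated CM5 surface and regenerated with 10 mM glycine pH 1.5.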
A general note: Surface plasmon resonance follows binding to a sensor surface in real time, without labels.

Assay [2] concerns the target T2, PSMA-expressing C4-2 cells (Homo sapiens, UniProt Q04609).
T2 construct: PSMA-expressing C4-2 cells (ATCC, Cat. No. CRL-3314) were cultured in RPMI-1640; host or cells: C4-2 cells
Description: FACS binding assay (competition with 50 nM PSM-0183). Particulars: FACS binding, PSMA-expressing C4-2 cells; pIC50 category; read-out: pIC50 [C4-2] CAT (converted). In outline: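 Competition format: fluorescent tracer PSM-0183 (50 nM) displaced from PSMA on C4-2 cells by a test compound titration over 1 h at 4 °C. Bound tracer was quantified as flow-cytometric AF488 median fluorescence after washing. Four-parameter logistic fits of MFI data gave IC50 and pIC50.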
On the technique in general: In flow cytometry, cells or beads pass a laser one at a time.

T1 sequence (Q04609 44-750 limits assumed): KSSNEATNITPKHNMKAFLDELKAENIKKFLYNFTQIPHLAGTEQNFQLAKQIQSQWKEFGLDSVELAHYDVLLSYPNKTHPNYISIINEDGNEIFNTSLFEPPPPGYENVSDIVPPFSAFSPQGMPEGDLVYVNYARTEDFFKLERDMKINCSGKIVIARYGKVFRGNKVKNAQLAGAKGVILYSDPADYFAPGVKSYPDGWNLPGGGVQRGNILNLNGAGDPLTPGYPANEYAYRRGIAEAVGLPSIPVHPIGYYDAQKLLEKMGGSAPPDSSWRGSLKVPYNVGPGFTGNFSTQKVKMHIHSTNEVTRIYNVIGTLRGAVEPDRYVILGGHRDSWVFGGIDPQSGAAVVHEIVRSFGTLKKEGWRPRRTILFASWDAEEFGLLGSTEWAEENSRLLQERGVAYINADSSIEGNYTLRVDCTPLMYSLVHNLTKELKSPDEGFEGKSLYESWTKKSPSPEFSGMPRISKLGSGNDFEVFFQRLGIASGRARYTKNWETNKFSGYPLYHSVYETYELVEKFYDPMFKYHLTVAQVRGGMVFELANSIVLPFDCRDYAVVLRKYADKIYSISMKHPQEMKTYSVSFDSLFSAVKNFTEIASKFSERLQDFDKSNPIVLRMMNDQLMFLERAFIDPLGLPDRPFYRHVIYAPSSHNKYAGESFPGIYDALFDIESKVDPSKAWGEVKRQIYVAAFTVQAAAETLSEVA
T2 sequence (Q04609 whole entry): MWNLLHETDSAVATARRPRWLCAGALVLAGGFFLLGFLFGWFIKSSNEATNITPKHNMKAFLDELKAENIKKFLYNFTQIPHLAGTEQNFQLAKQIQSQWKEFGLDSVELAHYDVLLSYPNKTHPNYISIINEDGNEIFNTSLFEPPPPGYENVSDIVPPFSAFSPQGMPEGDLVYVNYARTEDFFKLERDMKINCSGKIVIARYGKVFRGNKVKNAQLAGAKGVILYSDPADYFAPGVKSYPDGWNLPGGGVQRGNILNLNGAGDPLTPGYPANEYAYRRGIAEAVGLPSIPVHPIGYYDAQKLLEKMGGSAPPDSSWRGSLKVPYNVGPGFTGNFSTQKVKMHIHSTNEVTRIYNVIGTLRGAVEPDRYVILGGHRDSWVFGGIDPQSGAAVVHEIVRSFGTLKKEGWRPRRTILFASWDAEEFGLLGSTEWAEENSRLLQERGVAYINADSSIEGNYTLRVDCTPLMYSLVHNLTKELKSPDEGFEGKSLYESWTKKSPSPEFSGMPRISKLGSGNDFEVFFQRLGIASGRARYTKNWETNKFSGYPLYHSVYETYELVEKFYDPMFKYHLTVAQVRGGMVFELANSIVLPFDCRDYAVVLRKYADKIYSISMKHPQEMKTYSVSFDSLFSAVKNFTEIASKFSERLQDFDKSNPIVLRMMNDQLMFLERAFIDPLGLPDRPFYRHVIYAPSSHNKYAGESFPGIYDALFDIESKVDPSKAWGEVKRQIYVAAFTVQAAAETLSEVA

`CNC(=N)NCCC[C@@H]1NC(=O)[C@H](CCCCN)NC(=O)[C@@H](NC(=O)[C@H](Cc2ccc(Cl)cc2)NC(=O)C(C)(C)NC(=O)[C@@H](NC(=O)CC2CCN(C(=O)CN3CCN(CC(=O)O)CCN(CC(=O)O)CCN(CC(=O)O)CC3)CC2)[C@@H](C)O)CSSC[C@@H](C(=O)N[C@H](C(N)=O)C(C)(C)C)NC(=O)[C@H](CC(N)=O)NC(=O)C(C)(C)NC1=O` [PSM-0345, DOTA-Cmp-Thr-Aib-Pcf-[Cys-Lys-Arg(Me)-Aib-Asn-Cys]-Tle-NH2] ({DOTA}-[X1]T[Aib][Phe(4-Cl)]CK[Arg(Me)][Aib]NC[Tle]-NH2; disulfide 5-10): in assay [1], the Kd was under 12.6 nM. Also, the IC50 in assay [2] is under 200 nM.
Consider `C[C@@H](O)[C@H](NC(=O)[C@@H](NC(=O)[C@@H]1CSSC[C@H](NC(=O)[C@H](Cc2ccc(Cl)cc2)NC(=O)[C@](C)(CC(=O)O)NC(=O)[C@@H](NC(=O)CC2CCN(C(=O)CN3CCN(CC(=O)O)CCN(CC(=O)O)CCN(CC(=O)O)CC3)CC2)[C@@H](C)O)C(=O)N[C@@H](CCCCN)C(=O)N[C@@H](CCCNC(=N)N)C(=O)NC(C)(C)C(=O)N[C@@H](CC(N)=O)C(=O)N1)C(C)(C)C)C(N)=O` [PSM-0346, DOTA-Cmp-Thr-Amd-Pcf-[Cys-Lys-Arg-Aib-Asn-Cys]-Tle-Thr-NH2] ({DOTA}-[X1]T[αMeD][Phe(4-Cl)]CKR[Aib]NC[Tle]T-NH2; disulfide 5-10), for which the Kd in assay [1] is 126 to 501 nM. The IC50 in assay [2] is 200 to 1260 nM.
`CC(=O)N[C@H](C(=O)NC(C)(C)C(=O)N[C@@H](Cc1ccccc1)C(=O)N[C@@H]1CSSC[C@@H](C(=O)N[C@H](C(=O)N[C@H](C(N)=O)[C@@H](C)O)C(C)(C)C)NC(=O)[C@H](CC(N)=O)NC(=O)C(C)(C)NC(=O)[C@H](CCCNC(=N)N)NC(=O)[C@H](CCCCN)NC1=O)[C@@H](C)O` [PSM-0348, Ac-Thr-Aib-Phe-[cys-Lys-Arg-Aib-Asn-Cys]-Tle-Thr-NH2] (Ac-T[Aib]F[dC]KR[Aib]NC[Tle]T-NH2; disulfide 4-9): the Kd in assay [1] is over 501 nM. Further, the IC50 in assay [2] is over 3160 nM.
For `CC(=O)NC(C)(C)C(=O)N[C@@H](Cc1ccc(Cl)cc1)C(=O)N[C@H]1CSSC[C@@H](C(=O)N[C@H](C(=O)N[C@H](C(=O)N2CCC(CC(=O)N[C@H](CCCCNC(=O)CN3CCN(CC(=O)O)CCN(CC(=O)O)CCN(CC(=O)O)CC3)C(N)=O)CC2)[C@@H](C)O)C(C)(C)C)NC(=O)[C@H](CC(N)=O)NC(=O)C(C)(C)NC(=O)[C@H](CCCNC(=N)N)NC(=O)[C@H](CCCCN)NC1=O` [PSM-0349, Ac-Aib-Pcf-[Cys-Lys-Arg-Aib-Asn-Cys]-Tle-Thr-Cmp-lys(DOTA)-NH2] (Ac-[Aib][Phe(4-Cl)]CKR[Aib]NC[Tle]T[X1][dK](DOTA)-NH2; disulfide 3-8), the Kd in assay [1] was under 12.6 nM. In addition, the IC50 in assay [2] was under 200 nM.
Taken in the same sequence, the figures for `CC(=O)N[C@H](C(=O)NC(C)(C)C(=O)N[C@@H](Cc1ccccc1)C(=O)N[C@H]1CSSC[C@@H](C(=O)N[C@@H](C(=O)N[C@H](C(N)=O)[C@@H](C)O)C(C)(C)C)NC(=O)[C@H](CC(N)=O)NC(=O)C(C)(C)NC(=O)[C@H](CCCNC(=N)N)NC(=O)[C@H](CCCCN)NC1=O)[C@@H](C)O` [PSM-0350, Ac-Thr-Aib-Phe-[Cys-Lys-Arg-Aib-Asn-Cys]-leu-Thr-NH2] (Ac-T[Aib]FCKR[Aib]NC[dTle]T-NH2; disulfide 4-9) were 126 to 501 nM and 200 to 1260 nM.
For `CNC(=N)NCCC[C@@H]1NC(=O)[C@H](CCCCN)NC(=O)[C@@H](NC(=O)[C@H](Cc2ccc(Cl)cc2)NC(=O)C(C)(C)NC(=O)[C@@H](NC(=O)CC2CCN(C(=O)CN3CCN(CC(=O)O)CCN(CC(=O)O)CCN(CC(=O)O)CC3)CC2)[C@@H](C)O)CSSC[C@@H](C(=O)N[C@H](C(=O)N[C@H](C(N)=O)[C@@H](C)O)C(C)(C)C)NC(=O)[C@H](CC(N)=O)NC(=O)C(C)(C)NC1=O` [PSM-0351, DOTA-Cmp-Thr-Aib-Pcf-[Cys-Lys-Arg(Me)-Aib-Asn-Cys]-Tle-Thr-NH2] ({DOTA}-[X1]T[Aib][Phe(4-Cl)]CK[Arg(Me)][Aib]NC[Tle]T-NH2; disulfide 5-10) the same measures were under 12.6 nM and under 200 nM.
Consider `C[C@@H](O)[C@H](NC(=O)[C@@H](NC(=O)[C@@H]1CSSC[C@H](NC(=O)[C@H](Cc2ccc(Cl)cc2)NC(=O)C(C)(C)NC(=O)CCNC(=O)CN2CCN(CC(=O)O)CCN(CC(=O)O)CCN(CC(=O)O)CC2)C(=O)N[C@@H](CCCCN)C(=O)N[C@@H](CCCNC(=N)N)C(=O)NC(C)(C)C(=O)N[C@@H](CC(N)=O)C(=O)N1)C(C)(C)C)C(N)=O` [PSM-0352, DOTA-Bal-Aib-Pcf-[Cys-Lys-Arg-Aib-Asn-Cys]-Tle-Thr-NH2] ({DOTA-βAla}-[Aib][Phe(4-Cl)]CKR[Aib]NC[Tle]T-NH2; disulfide 3-8), for which, in assay [1], the Kd is under 12.6 nM. In addition, the IC50 in assay [2] was under 200 nM.
For `CC(C)CC(=O)NC(C)(C)C(=O)N[C@@H](Cc1ccc(Cl)cc1)C(=O)N[C@H]1CSSC[C@@H](C(=O)N[C@H](C(=O)N[C@H](C(N)=O)[C@@H](C)O)C(C)(C)C)NC(=O)[C@H](CC(N)=O)NC(=O)[C@H](CCCCNC(=O)CN2CCC(NC(=O)CN3CCN(CC(=O)O)CCN(CC(=O)O)CCN(CC(=O)O)CC3)CC2)NC(=O)[C@H](CCCNC(=N)N)NC(=O)[C@H](CCCCN)NC1=O` [PSM-0353, Iva-Aib-Pcf-[Cys-Lys-Arg-Lys(DOTA-APAc)-Asn-Cys]-Tle-Thr-NH2] (Isovaleryl-[Aib][Phe(4-Cl)]CKRK(X7)NC[Tle]T-NH2; disulfide 3-8), the Kd in assay [1] is under 12.6 nM. The IC50 in assay [2] is under 200 nM.
Consider `CNCCCC[C@@H]1NC(=O)[C@@H](NC(=O)[C@H](Cc2cccc(Cl)c2)NC(=O)C(C)(C)NC(=O)[C@@H](NC(=O)CC2CCN(C(=O)CN3CCN(CC(=O)O)CCN(CC(=O)O)CCN(CC(=O)O)CC3)CC2)[C@@H](C)O)CSSC[C@@H](C(=O)N[C@H](C(N)=O)C(C)(C)C)NC(=O)[C@H](CC(N)=O)NC(=O)C(C)(C)NC(=O)[C@H](CCCNC(=N)NC)NC1=O` [PSM-0354, DOTA-Cmp-Thr-Aib-Mcf-[Cys-Lys(Me)-Arg(Me)-Aib-Asn-Cys]-Tle-NH2] ({DOTA}-[X1]T[Aib][Phe(3-Cl)]C[Lys(Me)][Arg(Me)][Aib]NC[Tle]-NH2; disulfide 5-10), for which the Kd in assay [1] is 12.6 to 126 nM. For the same molecule, the IC50 in assay [2] is under 200 nM.
For `C/N=C(/NC)N(C)CCC[C@@H]1NC(=O)[C@H](CCCCNC)NC(=O)[C@@H](NC(=O)[C@H](Cc2ccc(Cl)cc2)NC(=O)C(C)(C)NC(=O)[C@@H](NC(=O)CC2CCN(C(=O)CN3CCN(CC(=O)O)CCN(CC(=O)O)CCN(CC(=O)O)CC3)CC2)[C@@H](C)O)CSSC[C@@H](C(=O)N[C@H](C(=O)N[C@H](C(N)=O)[C@@H](C)O)C(C)(C)C)NC(=O)[C@H](CC(N)=O)NC(=O)C(C)(C)NC1=O` [PSM-0355, DOTA-Cmp-Thr-Aib-Pcf-[Cys-Lys(Me)-RMe3-Aib-Asn-Cys]-Tle-Thr-NH2] ({DOTA}-[X1]T[Aib][Phe(4-Cl)]C[Lys(Me)][X13][Aib]NC[Tle]T-NH2; disulfide 5-10) the same measures were under 12.6 nM and 200 to 1260 nM.
Regarding `CC[C@H](C)[C@H](NC(=O)CC1CCN(C(=O)CN2CCN(CC(=O)O)CCN(CC(=O)O)CCN(CC(=O)O)CC2)CC1)C(=O)NC(C)(C)C(=O)N[C@@H](Cc1ccccc1)C(=O)N[C@H]1CSSC[C@@H](C(=O)N[C@H](C(=O)N[C@H](C(N)=O)[C@@H](C)O)C(C)(C)C)NC(=O)[C@H](CC(N)=O)NC(=O)C(C)(C)NC(=O)[C@H](CCCNC(=N)N)NC(=O)[C@H](CCCCN)NC1=O` [PSM-0357, DOTA-Cmp-Ile-Aib-Phe-[Cys-Lys-Arg-Aib-Asn-Cys]-Tle-Thr-NH2] ({DOTA}-[X1]I[Aib]FCKR[Aib]NC[Tle]T-NH2; disulfide 5-10), in assay [1], the Kd was 12.6 to 126 nM. Moreover, the IC50 in assay [2] is 200 to 1260 nM.
Taken in the same sequence, the figures for `C[C@@H](O)[C@H](NC(=O)[C@@H](NC(=O)[C@@H]1CSSC[C@H](NC(=O)[C@H](Cc2c[nH]c3ccc(Br)cc23)NC(=O)C(C)(C)NC(=O)[C@@H](NC(=O)CC2CCN(C(=O)CN3CCN(CC(=O)O)CCN(CC(=O)O)CCN(CC(=O)O)CC3)CC2)[C@@H](C)O)C(=O)N[C@@H](CCCCN)C(=O)N[C@@H](CCCNC(N)=O)C(=O)NC(C)(C)C(=O)N[C@@H](CC(N)=O)C(=O)N1)C(C)(C)C)C(N)=O` [PSM-0359, DOTA-Cmp-Thr-Aib-5Brw-[Cys-Lys-Cit-Aib-Asn-Cys]-Tle-Thr-NH2] ({DOTA}-[X1]T[Aib][Trp(5-Br)]CK[Cit][Aib]NC[Tle]T-NH2; disulfide 5-10) were over 501 nM and over 3160 nM.
In the case of `CC(=O)N[C@H](C(=O)NC(C)(C)C(=O)N[C@@H](Cc1ccccc1)C(=O)N[C@H]1CSSC[C@@H](C(=O)N[C@H](C(=O)N[C@H](C(=O)N[C@@H](CC(=O)O)C(N)=O)[C@@H](C)O)C(C)(C)C)NC(=O)[C@H](CC(N)=O)NC(=O)[C@H](C)NC(=O)[C@H](CCC(=O)O)NC(=O)[C@H](CCCCN)NC1=O)[C@@H](C)O` [PSM-0363, Ac-Thr-Aib-Phe-[Cys-Lys-Glu-Ala-Asn-Cys]-Tle-Thr-Asp-NH2] (Ac-T[Aib]FCKEANC[Tle]TD-NH2; disulfide 4-9), the Kd in assay [1] was under 12.6 nM. Also, the IC50 in assay [2] was 200 to 1260 nM.

Values taken from patent US20260083865A1, “PROSTATE SPECIFIC MEMBRANE ANTIGEN (PSMA) LIGANDS AND USE THEREOF” (priority 2022, published 2026).
